The assay deals with adult male CD1 mice, ischemia-reperfusion. The following applies: mouse, in vivo.

“AAT: plasma-derived alpha-1 antitrypsin (Aralast NP, Baxter)”: the “Infarct size when given with the LRP1 blocking antibody” value was “significant increase in infarct size”.

For the origin of these results see article PMC6058925 (JACC: Basic to Translational Science, 2017).
